Among the data in patent publication EP1140895B1, “THIOPYRAN COMPOUNDS AS INHIBITORS OF MMP” (FUJISAWA PHARMACEUTICAL CO., LTD., priority 1999, dated 2000) are IC50 values, retold here.

This assay concerns the target T1, human MMP-13 (Homo sapiens, UniProt P45452).
T1 construct: truncated form of human recombinant MMP-13; purchased Chondrex, USA
As to the kind of experiment: Inhibitory activity of human MMP-13. The format is biochemical. The conditions noted are these: commercial kit, truncated form of human recombinant MMP-13, fluorogenic peptide substrate, 1 hour at 35°C. How it is done:
The inhibitory potential of test compounds against human MMP-13 were assayed by using commercial kit (Chondrex, USA) contained truncated form of human recombinant MMP-13 and fluorogenic peptide substrate. Activity of human MMP-13 was determined by monitoring the degradation of fluorogenic peptide substrate after incubation for 1 hour at 35°C and estimated by measuring the fluorescence intensity of degraded peptide substrate at 495 nm (excitation) and 520 nm (emission).
Inhibitory activity of human MMP-13 as mentioned above.

With `O=C(CC1(c2ccc(Oc3ccc(Cl)cc3)cc2)CCCCS1(=O)=O)NO` (single isomer, unassigned) [Example 15, (R or S)-(-)-2-[4-(4-chlorophenoxy)phenyl]-3,4,5,6-tetrahydro-N-hydroxy-2H-thiopyran-2-acetamide 1,1-dioxide], the IC50 amounted to 2.2 nM.
